This is an account of results in US8674070B2, “Cancer-targeting peptides and uses thereof in cancer therapy” (Academia Sinica, priority 2009, dated 2014).

The test system of series [1] is BT483 breast cancer xenografts. Kind of series: Treatment of breast tumor xenografts: tumor volume. Format: in vivo, SCID mice. The note with it: doxorubicin 3 mg/kg once a week for three weeks, tail vein; n=6, P<0.005. As for the experimental part: SCID mice (4-6 weeks of age) were injected s.c. in the dorsolateral flank with 1×10^7 BT483 cells to induce breast cancer xenografts. The tumor volumes in these mice were determined by the formula: length×[…]×0.52. The mice bearing xenograft tumors at a size of around 50-100 mm^3 were randomly assigned to four groups, each of which was treated as follows via administration through their tail veins.
Group 1: treated with SP90 conjugated doxorubicin-containing liposomes (SP90-LD) at a doxorubicin dosage of 3 mg/kg, once a week for three weeks,
Group 2: treated with doxorubicin-containing liposomes (LD), at a doxorubicin dosage of 3 mg/kg, once a week for three weeks,
Group 3: treated with free doxorubicin (FD), at a doxorubicin dosage of 3 mg/kg, once a week for three weeks, and
Group 4: treated with saline once a week for three weeks (blank control).
Mouse body weights and tumor sizes were measured twice a week. Tumor volumes were calculated following the formula described above.

Series [2] in a line: Total white blood cell count in treated tumor-bearing mice. Type of series: in vivo, SCID mice. The note with it: three days after the last treatment (day 17); doxorubicin 3 mg/kg weekly x3. The procedure:
The total white blood cell (WBC) numbers in the treated mice were determined three days after the last treatment (i.e., on day 17) as follows. […] The blood was then mixed with a red blood cell lysis buffer containing 2% acetic acid and 1% of Gentian violet (Sigma-Aldrich, Saint Louis, Mo., USA) and incubated at room temperature. The number of the WBCs was countered using a hemacytometer.

Another series deals with tumor blood vessels. As to the kind of experiment: Tumor blood vessel staining with tomato lectin. The note with it: doxorubicin 3 mg/kg weekly x3; FIG. 3 Panel B. Type of series: in vivo, SCID mice. The source says: Tumor tissues were removed from the treated mice, fixed with 4% paraformaldehyde and embedded with paraffin. Blood vessels in the tumor tissues were detected by staining with Lycopersicon esculentum (tomato) lectin conjugated to biotin (Vector, CA, USA) and then with streptavidin-conjugated rhodamine (Pierce, Ill., USA).

The nature of series [3]: Doxorubicin localization in tumor tissues of treated mice. As to conditions: 2 mg/kg tail vein. Format: in vivo, SCID mice. An excerpt:
At selected time points, three mice in each group were anaesthetized and sacrificed.

In series [4] the test system is cancer cells in breast cancer tissue samples. Kind of series: Peptide competition assay on cancer tissue samples. Type of series: binding, human. As to conditions: peptide 100 ng/ml; PC90 10^9 pfu. As for the experimental part: The cancer targeting activity of PC90 was confirmed by a peptide competition assay, in which the cancer tissue samples were incubated with (1) the synthetic peptide (100 ng/ml) SMDPFLFQLLQL (SEQ ID NO:5) (SP90) and PC90 (10^9 pfu) or (2) the control peptide (100 ng/ml) RLLDTNRPLLPY (SEQ ID NO:6; see Lee et al., cancer Res. 64:8002-8008, 2004) and PC90. SP90 and the control peptide were synthesized and purified by reverse-phase high-performance liquid chromatography. The resultant peptides, having a purity of greater than 95%, were conjugated, if necessary, with FITC or biotin at their N-termini.

The subject of a further series is breast tumor xenografts. As to the kind of experiment: In vivo peptide competition: co-injection with PC90 in mice bearing breast tumor xenografts. As to conditions: 100 μg peptide co-injected with PC90. The procedure:
SP90 was co-administered to test its ability of blocking PC90 from binding to the tumor tissues. Briefly, 100 μg SP90 or the control peptides described above were co-injected with PC90 to mice bearing breast tumor xenografts. The normal organs and tumor tissues were removed and fixed in Bouin's solution (Sigma, Mo., USA). After fixation, the samples were embedded in paraffin blocks, sliced to sections, and the sections were deparaffinized, rehydrated, and subjected to immunostaining using the mouse anti-M13 mAb described in Example 1 above.

Consider `COc1cccc2c1C(=O)c1c(O)c3c(c(O)c1C2=O)C[C@@](O)(C(=O)CO)C[C@@H]3O[C@H]1C[C@H](N)[C@H](O)[C@H](C)O1` [FD, doxorubicin], for which the “average tumor volume, fold larger than that of the Group 2 mice” value in series [1] is given as 8.3 fold. Also, in series [2], the “total number of the WBCs” value is on record as 5.6×10^3 /mm^3. Further, the “number of tumor vessels / tumor vascular density (lectin staining)” value in the series on tumor blood vessels is on record as “high tumor vascular density”. Also, the “areas of tumor tissue in which doxorubicin was detected (autofluorescence)” value in series [3] is recorded as “detected only in limited areas”.
As for RLLDTNRPLLPY [control peptide], the “competition against PC90 for binding to the cancer cells in the tissue samples” value in series [4] is “not”. Further, the “inhibition of PC90 binding to the tumor tissues” value in the series with breast tumor xenografts was “did not exhibit any inhibitory activity”.
In the case of SMDPFLFQLLQL [SP90], the “competition against PC90 for binding to the cancer cells in the tissue samples” value in series [4] was “competed against PC90 for binding to the cancer cells”. In addition, the “inhibition of PC90 binding to the tumor tissues” value in the series on breast tumor xenografts is given as 97%.
